This is an account of results in US12479856B2, “Pharmaceutical compounds for the treatment of complement mediated disorders” (Achillion Pharmaceuticals, Inc., priority 2019, dated 2025).

Bounds are passed on as bounds.

For one experiment, the target named is T1, Human complement C1s enzyme (Homo sapiens, UniProt P09871).
T1 construct: purified from human serum, Complement Technology, Inc; purchased Complement Technology, Inc; host or cells: human serum (plasma-derived natural protein)
T1 sequence (P09871 438-688 limits assumed): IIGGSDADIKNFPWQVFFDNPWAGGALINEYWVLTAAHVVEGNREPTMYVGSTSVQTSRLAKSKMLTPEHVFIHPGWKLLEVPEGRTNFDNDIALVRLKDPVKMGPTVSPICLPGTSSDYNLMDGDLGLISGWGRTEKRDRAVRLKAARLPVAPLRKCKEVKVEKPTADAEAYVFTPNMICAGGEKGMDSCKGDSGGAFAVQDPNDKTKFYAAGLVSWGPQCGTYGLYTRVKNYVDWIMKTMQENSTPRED
T1 sequence (P09871 16-437 partner limits assumed): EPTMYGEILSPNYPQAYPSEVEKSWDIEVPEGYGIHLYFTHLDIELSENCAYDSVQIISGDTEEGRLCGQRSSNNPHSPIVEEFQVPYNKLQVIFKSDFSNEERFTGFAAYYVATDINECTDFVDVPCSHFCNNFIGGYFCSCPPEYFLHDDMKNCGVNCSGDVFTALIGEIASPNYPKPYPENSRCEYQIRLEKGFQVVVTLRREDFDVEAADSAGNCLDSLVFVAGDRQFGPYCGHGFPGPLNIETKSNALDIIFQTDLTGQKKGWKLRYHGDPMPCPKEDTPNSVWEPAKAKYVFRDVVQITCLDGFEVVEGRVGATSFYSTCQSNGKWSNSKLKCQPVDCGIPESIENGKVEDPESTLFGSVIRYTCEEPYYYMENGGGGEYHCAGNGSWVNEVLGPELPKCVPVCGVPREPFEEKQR
Nature of the experiment: Human C1s Enzyme Assay. It is filed as biochemical. Particulars: Table 1; C1s purified from human serum, 1.16 nM; substrate Z-L-Lys-SBzl; read-out: C1s Protease Activity. The procedure: Example 4. Human C1s Enzyme Assay
Human complement C1s enzyme (purified from human serum, Complement Technology, Inc.) at 1.16 nM final concentration is incubated with test compound at various concentrations for 5 min at room temperature in 50 mM Tris, 1 M NaCl, pH 7.5. A synthetic substrate Z-L-Lys-SBzl and DTNB (Ellman's reagent) are added to final concentrations of 100 μM each. Absorbance at 405 nm (A405) is recorded at 30 second intervals for 30 min using a microplate spectrophotometer. IC50 values are calculated by nonlinear regression of complement C1s reaction rates as a function of test compound concentration.
For the compound `Cc1ccc(Oc2ccc(C(=O)NCC(=O)N3CC4(C[C@H]3C(=O)NCc3cc(C(=N)N)cs3)OCCO4)cc2)cc1` [Compound 1, (8S)—N-[(4-carbamimidoylthiophen-2-yl)methyl]-7-(2-{[4-(4-methylphenoxy)phenyl]formamido}acetyl)-1,4-dioxa-7-azaspiro[4.4]nonane-8-carboxamide], the IC50 is under 100 nM.

Take `N=C(N)c1csc(CNC(=O)[C@@H]2CC3(CN2C(=O)CNC(=O)c2ccc(Oc4ccccc4)cc2)OCCO3)c1` [Compound 2, (8S)—N-[(4-carbamimidoylthiophen-2-yl)methyl]-7-{2-[(4-phenoxyphenyl)formamido]acetyl}-1,4-dioxa-7-azaspiro[4.4]nonane-8-carboxamide]: the IC50 is under 100 nM.

`C[C@@]1(C(=O)NCc2cc(C(=N)N)cs2)CCCN1C(=O)CNC(=O)c1ccc(Oc2ccccc2)cc1` [Compound 3, (2S)—N-[(4-Carbamimidoylthiophen-2-yl)methyl]-2-methyl-1-{2-[(4-phenoxyphenyl)formamido]acetyl}pyrrolidine-2-carboxamide]: the IC50 is under 100 nM.

Consider `N=C(N)c1csc(CNC(=O)[C@@H]2CSCN2C(=O)CNC(=O)c2ccc(Oc3ccccc3)cc2)c1` [Compound 4, (4R)—N-[(4-Carbamimidoylthiophen-2-yl)methyl]-3-{2-[(4-phenoxyphenyl)formamido]acetyl}-1,3-thiazolidine-4-carboxamide], for which the IC50 was under 100 nM.

Turning to `N=C(N)c1csc(CNC(=O)[C@H]2CCCN2C(=O)CNC(=O)c2ccc(Oc3ccccc3)cc2)c1` [Compound 5, (2R)—N-[(4-Carbamimidoylthiophen-2-yl)methyl]-1-{2-[(4-phenoxyphenyl)-formamido]acetyl}pyrrolidine-2-carboxamide], the IC50 is over 1000 nM.

With `C=C1C[C@@H](C(=O)NCc2cc(C(=N)N)cs2)N(C(=O)CNC(=O)c2ccc(Oc3ccccc3)cc2)C1` [Compound 6, (2S)—N-[(4-Carbamimidoylthiophen-2-yl)methyl]-4-methylidene-1-{2-[(4-phenoxyphenyl)formamido]acetyl}pyrrolidine-2-carboxamide], the IC50 is under 100 nM.

Turning to `N=C(N)c1csc(CNC(=O)C2N(C(=O)CNC(=O)c3ccc(Oc4ccccc4)cc3)CC23CCC3)c1` (stereo not drawn) [Compound 7, N-[(4-Carbamimidoylthiophen-2-yl)methyl]-2-{2-[(4-phenoxyphenyl)formamido]acetyl}-2-azaspiro[3.3]heptane-1-carboxamide], the IC50 was under 100 nM.

With `C[C@@]12C[C@@H](C(=O)NCc3cc(C(=N)N)cs3)N(C(=O)CNC(=O)c3ccc(Oc4ccccc4)cc3)[C@@H]1C2` [Compound 8, (1R,3S,5R)—N-[(4-Carbamimidoylthiophen-2-yl)methyl]-5-methyl-2-{2-[(4-phenoxyphenyl)formamido]acetyl}-2-azabicyclo[3.1.0]hexane-3-carboxamide], the IC50 is under 100 nM.

`C[C@@]12C[C@@H]1N(C(=O)CNC(=O)c1ccc(Oc3ccccc3)cc1)[C@H](C(=O)NCc1cc(C(=N)N)cs1)C2` [Compound 9, (1S,3S,5S)—N-[(4-Carbamimidoylthiophen-2-yl)methyl]-5-methyl-2-{2-[(4-phenoxyphenyl)formamido]acetyl}-2-azabicyclo[3.1.0]hexane-3-carboxamide]: the IC50 was under 100 nM.

Take `N=C(N)c1csc(CNC(=O)C2CC3(CC3)CN2C(=O)CNC(=O)c2ccc(Oc3ccccc3)cc2)c1` (stereo not drawn) [Compound 10, N-[(4-Carbamimidoylthiophen-2-yl)methyl]-5-{2-[(4-phenoxyphenyl)formamido]acetyl}-5-azaspiro[2.4]heptane-6-carboxamide]: the IC50 is 100 to 1000 nM.

For the compound `N=C(N)c1csc(CNC(=O)C2CC3(CCC3)CN2C(=O)CNC(=O)c2ccc(Oc3ccccc3)cc2)c1` (stereo not drawn) [Compound 11, N-[(4-Carbamimidoylthiophen-2-yl)methyl]-6-{2-[(4-phenoxyphenyl)formamido]acetyl}-6-azaspiro[3.4]octane-7-carboxamide], the IC50 was under 100 nM.

For the compound `N=C(N)c1csc(CNC(=O)[C@@H]2CC3(CCCC3)CN2C(=O)CNC(=O)c2ccc(Oc3ccccc3)cc2)c1` [Compound 12, (3S)—N-[(4-Carbamimidoylthiophen-2-yl)methyl]-2-{2-[(4-phenoxyphenyl)formamido]acetyl}-2-azaspiro[4.4]nonane-3-carboxamide], the IC50 is under 100 nM.

Take `N=C(N)c1csc(CNC(=O)[C@@H]2CC3(CCCCC3)CN2C(=O)CNC(=O)c2ccc(Oc3ccccc3)cc2)c1` [Compound 13, (3S)—N-[(4-Carbamimidoylthiophen-2-yl)methyl]-2-{2-[(4-phenoxyphenyl)formamido]acetyl}-2-azaspiro[4.5]decane-3-carboxamide]: the IC50 was over 1000 nM.

Turning to `N=C(N)c1csc(CNC(=O)[C@@H]2CN2C(=O)CNC(=O)c2ccc(Oc3ccccc3)cc2)c1` [Compound 14, (2S)—N-[(4-Carbamimidoylthiophen-2-yl)methyl]-1-{2-[(4-phenoxyphenyl)formamido]acetyl}aziridine-2-carboxamide], the IC50 was 100 to 1000 nM.

For `N=C(N)c1csc(CNC(=O)[C@@H]2CC(=O)CN2C(=O)CNC(=O)c2ccc(Oc3ccccc3)cc2)c1` [Compound 15, (2S)—N-[(4-Carbamimidoylthiophen-2-yl)methyl]-4-oxo-1-{2-[(4-phenoxyphenyl)formamido]acetyl}pyrrolidine-2-carboxamide], the IC50 is under 100 nM.

With `N=C(N)CCCNC(=O)[C@@H]1CC2(CN1C(=O)CNC(=O)c1ccc(Oc3ccccc3)cc1)OCCO2` [Compound 16, (8S)—N-(3-Carbamimidoylpropyl)-7-{2-[(4-phenoxyphenyl)formamido]acetyl}-1,4-dioxa-7-azaspiro[4.4]nonane-8-carboxamide], the IC50 is over 1000 nM.

Consider `N=C(N)CCCCNC(=O)[C@@H]1CC2(CN1C(=O)CNC(=O)c1ccc(Oc3ccccc3)cc1)OCCO2` [Compound 17, (8S)—N-(4-Carbamimidoylbutyl)-7-{2-[(4-phenoxyphenyl)formamido]acetyl}-1,4-dioxa-7-azaspiro[4.4]nonane-8-carboxamide], for which the IC50 was over 1000 nM.

As for `N=C(N)c1cccc(CNC(=O)[C@@H]2CC3(CN2C(=O)CNC(=O)c2ccc(Oc4ccccc4)cc2)OCCO3)c1` [Compound 18, (8S)—N-[(3-Carbamimidoylphenyl)methyl]-7-{2-[(4-phenoxyphenyl)formamido]acetyl}-1,4-dioxa-7-azaspiro[4.4]nonane-8-carboxamide], the IC50 was over 1000 nM.

Regarding `N=C(N)c1ccc(CNC(=O)[C@@H]2CC3(CN2C(=O)CNC(=O)c2ccc(Oc4ccccc4)cc2)OCCO3)cc1` [Compound 19, (8S)—N-[(4-Carbamimidoylphenyl)methyl]-7-{2-[(4-phenoxyphenyl)formamido]acetyl}-1,4-dioxa-7-azaspiro[4.4]nonane-8-carboxamide], the IC50 was under 100 nM.

Consider `CC(=O)Nc1cccc(CNC(=O)[C@@H]2CC3(CN2C(=O)CNC(=O)c2ccc(Oc4ccccc4)cc2)OCCO3)c1` [Compound 20, (8S)—N-[(3-Acetamidophenyl)methyl]-7-{2-[(4-phenoxyphenyl)formamido]acetyl}-1,4-dioxa-7-azaspiro[4.4]nonane-8-carboxamide], for which the IC50 was over 1000 nM.

`CC(=O)Nc1ccc(CNC(=O)[C@@H]2CC3(CN2C(=O)CNC(=O)c2ccc(Oc4ccccc4)cc2)OCCO3)cc1` [Compound 21, (8S)—N-[(4-Acetamidophenyl)methyl]-7-{2-[(4-phenoxyphenyl)formamido]acetyl}-1,4-dioxa-7-azaspiro[4.4]nonane-8-carboxamide]: the IC50 is over 1000 nM.

Turning to `N=C(N)NCCC[C@H](NC(=O)[C@@H]1CC2(CN1C(=O)CNC(=O)c1ccc(Oc3ccccc3)cc1)OCCO2)C(N)=O` [Compound 22, N-{2-[(8S)-8-{[(1S)-4-Carbamimidamido-1-carbamoylbutyl]carbamoyl}-1,4-dioxa-7-azaspiro[4.4]nonan-7-yl]-2-oxoethyl}-4-phenoxybenzamide], the IC50 was over 1000 nM.

Take `Nc1ccc(CCNC(=O)[C@@H]2CC3(CN2C(=O)CNC(=O)c2ccc(Oc4ccccc4)cc2)OCCO3)cc1` [Compound 23, (8S)—N-[2-(4-Aminophenyl)ethyl]-7-{2-[(4-phenoxyphenyl)formamido]acetyl}-1,4-dioxa-7-azaspiro[4.4]nonane-8-carboxamide]: the IC50 is over 1000 nM.

Still in this experiment, the particulars now being: Table 3; C1s purified from human serum, 1.16 nM; substrate Z-L-Lys-SBzl; read-out: C1s Protease Activity.
Turning to `N=C(N)c1csc(CNC(=O)C2C3CCC(C3)N2C(=O)CNC(=O)c2ccc(Oc3ccccc3)cc2)c1` (stereo in doubt) [Compound 96, (1R,3R,4S)-N-((4-carbamimidoylthiophen-2-yl)methyl)-2-((4-phenoxybenzoyl)glycyl)-2-azabicyclo[2.2.1]heptane-3-carboxamide], the IC50 was under 100 nM.
